# Measured values published in paper PMC6295246 (Clinical cancer research : an official journal of the …, 2018).
# Assays:
# [1] = system: relapsed and refractory neuroblastoma; settings: phase 1, with irinotecan and temozolomide; cited from earlier work
# [2] = system: relapsed or refractory neuroblastoma; assay: Progression-free survival; assay type: in vivo, human; settings: pooled Phase 1/2/OS
# [3] = Alisertib plasma pharmacokinetics; assay type: in vivo, human; settings: pooled phase 1, phase 2 and OS cohorts
# [4] = system: relapsed or refractory neuroblastoma; assay: Best objective response; assay type: in vivo, human; settings: pooled Phase 1/2/OS
# [5] = Alisertib Day 5 trough > median, N=21
# [6] = Alisertib Day 5 trough ≤ median, N=21
# [7] = Alisertib exposure > median, N=21
# [8] = Alisertib exposure ≤ median, N=21
structure (smiles),measurement,setting,value
COc1cc(Nc2ncc3c(n2)-c2ccc(Cl)cc2C(c2c(F)cccc2OC)=NC3)ccc1C(=O)O [alisertib],estimated progression-free survival (PFS) rate at 2 years,[1],52%
same,response rate,[1],31.8%
same,1-Yr PFS,"[2]; > 2 Prior regimens, N=17",32%
same,1-Yr PFS,"[2]; AURKA Codon 31 wild type, N=27",32%
same,1-Yr PFS,"[2]; AURKA Codon 57 heterozygote, N=13",43%
same,1-Yr PFS,"[2]; Age ≥ 4 years, N=47",42%
same,1-Yr PFS,"[2]; Age ≥ 8 years, N=26",47%
same,1-Yr PFS,"[2]; Alisertib Cmax > median, N=21",28%
same,1-Yr PFS,"[2]; Alisertib Cmax ≤ median, N=21",55%
same,1-Yr PFS,[2]; [5],45%
same,1-Yr PFS,[2]; [6],33%
same,1-Yr PFS,[2]; [7],41%
same,1-Yr PFS,[2]; [8],38%
same,1-Yr PFS,"[2]; Lin 28B protein −, N=13",34%
same,1-Yr PFS,"[2]; MYCN amplified or Myc/Mycn +, N=18",12%
same,1-Yr PFS,"[2]; MYCN non-amplified, N=33",47%
same,1-Yr PFS,"[2]; No prior irinotecan, N=36",43%
same,1-Yr PFS,"[2]; No prior temozolomide, N=37",41%
same,1-Yr PFS,"[2]; Prior temozolomide, N=17",32%
same,1-Yr PFS,"[2]; UGT1A1 genotype 6 / 6, N=17",57%
same,1-Yr PFS,"[2]; UGT1A1 genotype 6 / 7, N=17",26%
same,1-Yr PFS,"[2]; UGT1A1 genotype 7 / 7, N=5",40%
same,1-Yr PFS,"[2]; ≤ 2 Prior regimens, N=37",42%
same,"alisertib Day 5 trough in the first cycle, median",[3],0.46 µM
same,Objective Response,"[4]; > 2 Prior regimens, N=17",24%
same,Objective Response,"[4]; AURKA Codon 31 heterozygote, N=12",25%
same,Objective Response,"[4]; AURKA Codon 31 wild type, N=27",19%
same,Objective Response,"[4]; AURKA Codon 57 wild type, N=27",19%
same,Objective Response,"[4]; Age < 8 years, N=28",18%
same,Objective Response,"[4]; Age ≥ 4 years, N=47",26%
same,Objective Response,"[4]; Age ≥ 8 years, N=26",27%
same,Objective Response,"[4]; Alisertib Cmax > median, N=21",19%
same,Objective Response,"[4]; Alisertib Cmax ≤ median, N=21",24%
same,Objective Response,[4]; [5],24%
same,Objective Response,[4]; [6],19%
same,Objective Response,[4]; [7],19%
same,Objective Response,[4]; [8],24%
same,Objective Response,"[4]; Aurora A protein +, N=12",17%
same,Objective Response,"[4]; Aurora A protein −, N=18",22%
same,Objective Response,"[4]; Lin28B protein +, N=17",12%
same,Objective Response,"[4]; MYCN non-amplified, N=33",27%
same,Objective Response,"[4]; No prior irinotecan, N=36",28%
same,Objective Response,"[4]; No prior temozolomide, N=37",27%
same,Objective Response,"[4]; Prior temozolomide, N=17",12%
same,Objective Response,"[4]; UGT1A1 genotype 6 / 6, N=17",35%
same,Objective Response,"[4]; UGT1A1 genotype 6 / 7, N=17",6%
same,Objective Response,"[4]; UGT1A1 genotype 7 / 7, N=5",20%
same,Objective Response,"[4]; ≤ 2 Prior regimens, N=37",22%
